PubChem BioAssay AID248 (DTP/NCI, 2004)
Several values for one entry are separate records, joined by “and”; a condition that tells them apart may be missing. Equal entries are not always repeated. Inconclusive results and toxic doses are left out.

System: L1210 leukemia ip in BDF1 mice, survival T/C
Experiment: NCI In Vivo Anticancer Drug Screen. Data for tumor model L1210 Leukemia (intraperitoneal) in B6D2F1 (BDF1) mice
Settings: endpoint: mean survival time, higher = longer survival
Procedure, shortened: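 Tumor cells were implanted, animals were treated, and survival was followed. The result divides the treated measurement by the vehicle-control measurement.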

[1] = dose: 100.0 mg/kg/injection, schedule: Q01DX001 (ip), vehicle: carboxymethylcellulose (CMC)
[2] = dose: 200.0 mg/kg/injection, schedule: Q01DX001 (ip), vehicle: carboxymethylcellulose (CMC)
[3] = dose: 400.0 mg/kg/injection, schedule: Q01DX001 (ip), vehicle: carboxymethylcellulose (CMC)
[4] = dose: 50.0 mg/kg/injection, schedule: Q01DX001 (ip), vehicle: carboxymethylcellulose (CMC)
[5] = dose: 100.0 mg/kg/injection, schedule: Q01DX001 (ip), vehicle: other
[6] = dose: 200.0 mg/kg/injection, schedule: Q01DX001 (ip), vehicle: other
[7] = dose: 400.0 mg/kg/injection, schedule: Q01DX001 (ip), vehicle: other
[8] = dose: 75.0 mg/kg/injection, schedule: Q01DX001 (ip), vehicle: saline
[9] = dose: 150.0 mg/kg/injection, schedule: Q01DX001 (ip), vehicle: saline
[10] = dose: 100.0 mg/kg/injection, schedule: Q01DX001 (ip), vehicle: saline

Cc1cc(C)c(C(Cl)(Cl)Cl)c(C)c1Cl
T/C (dose: 22.0 mg/kg/injection, schedule: Q01DX009 (ip), vehicle: saline with Tween-80): 119 % of control | T/C (dose: 33.0 mg/kg/injection, schedule: Q01DX009 (ip), vehicle: Klucel (hydroxypropylcellulose) (HPC)): 113 % of control | T/C (dose: 33.0 mg/kg/injection, schedule: Q01DX009 (ip), vehicle: saline with Tween-80): 112 % of control | T/C (dose: 50.0 mg/kg/injection, schedule: Q01DX009 (ip), vehicle: Klucel (hydroxypropylcellulose) (HPC)): 100 % of control | T/C (dose: 50.0 mg/kg/injection, schedule: Q01DX009 (ip), vehicle: saline with Tween-80): 118 % of control | T/C (dose: 75.0 mg/kg/injection, schedule: Q01DX009 (ip), vehicle: Klucel (hydroxypropylcellulose) (HPC)): 107 % of control | T/C (dose: 75.0 mg/kg/injection, schedule: Q01DX009 (ip), vehicle: saline with Tween-80): 113 % of control | T/C [1]: 121 % of control | T/C (dose: 100.0 mg/kg/injection, schedule: Q01DX009 (ip), vehicle: saline with Tween-80): 121 % of control | T/C (dose: 100.0 mg/kg/injection, schedule: Q04DX003 (ip), vehicle: saline with Tween-80): 120 % of control | T/C [2]: 118 % of control | T/C (dose: 200.0 mg/kg/injection, schedule: Q01DX009 (ip), vehicle: saline with Tween-80): 103 % of control | T/C (dose: 200.0 mg/kg/injection, schedule: Q04DX003 (ip), vehicle: saline with Tween-80): 108 % of control | T/C [3]: 121 % of control

NC(=S)N/N=C/c1c(O)ccc2ccccc12
T/C [1]: 96 % of control | T/C [2]: 94 % of control | T/C [3]: 94 % of control

CCOC(=O)CCC(=O)NNc1ccccc1
T/C [4]: 106 % of control | T/C [1]: 100 % of control | T/C [2]: 102 % of control | T/C [3]: 106 % of control

O=NN(CCCl)C(=O)NC(C(=O)O)C1CCCCC1 (stereo not given)
T/C (dose: 8.0 mg/kg/injection, schedule: Q01DX001 (ip), vehicle: saline with Tween-80): 118 % of control | T/C (dose: 12.0 mg/kg/injection, schedule: Q01DX001 (ip), vehicle: saline with Tween-80): 171 % of control | T/C (dose: 26.0 mg/kg/injection, schedule: Q01DX001 (ip), vehicle: saline with Tween-80): 153 % of control | T/C (dose: 40.0 mg/kg/injection, schedule: Q01DX001 (ip), vehicle: saline with Tween-80): 253 % of control | T/C (dose: 60.0 mg/kg/injection, schedule: Q01DX001 (ip), vehicle: saline with Tween-80): 412 % of control | T/C (dose: 90.0 mg/kg/injection, schedule: Q01DX001 (ip), vehicle: saline with Tween-80): 482 % of control | T/C (dose: 133.0 mg/kg/injection, schedule: Q01DX001 (ip), vehicle: saline with Tween-80): 266 % of control

CCOC(=O)c1c[nH]c2c(Cl)cc(Cl)cc2c1=O
T/C [5]: 104 % of control | T/C [6]: 95 % of control | T/C [7]: 101 % of control

CNC(C)Cc1ccccc1 (stereo not given)
T/C (dose: 1.87 mg/kg/injection, schedule: Q04DX003 (ip), vehicle: saline): 103 % of control and 116 % of control | T/C (dose: 3.75 mg/kg/injection, schedule: Q01DX009 (ip), vehicle: saline): 95 % of control | T/C (dose: 3.75 mg/kg/injection, schedule: Q04DX003 (ip), vehicle: saline): 106 % of control and 116 % of control | T/C (dose: 7.5 mg/kg/injection, schedule: Q01DX009 (ip), vehicle: saline): 103 % of control and 98 % of control | T/C (dose: 7.5 mg/kg/injection, schedule: Q04DX003 (ip), vehicle: saline): 108 % of control and 97 % of control | T/C (dose: 15.0 mg/kg/injection, schedule: Q01DX009 (ip), vehicle: saline): 100 % of control and 96 % of control | T/C (dose: 15.0 mg/kg/injection, schedule: Q04DX003 (ip), vehicle: saline): 95 % of control and 111 % of control | T/C (dose: 30.0 mg/kg/injection, schedule: Q01DX009 (ip), vehicle: saline): 109 % of control and 112 % of control | T/C (dose: 30.0 mg/kg/injection, schedule: Q04DX003 (ip), vehicle: saline): 92 % of control and 111 % of control | T/C (dose: 60.0 mg/kg/injection, schedule: Q01DX009 (ip), vehicle: saline): 107 % of control and 108 % of control | T/C (dose: 60.0 mg/kg/injection, schedule: Q04DX003 (ip), vehicle: saline): 95 % of control

O=C(O)c1ccc(C2CC2)cc1
T/C [5]: 103 % of control | T/C (dose: 100.0 mg/kg/injection, schedule: Q04DX003 (ip), vehicle: other): 103 % of control | T/C [6]: 108 % of control | T/C (dose: 200.0 mg/kg/injection, schedule: Q04DX003 (ip), vehicle: other): 111 % of control | T/C [7]: 95 % of control | T/C (dose: 400.0 mg/kg/injection, schedule: Q04DX003 (ip), vehicle: other): 103 % of control

COC(C)C1C([N+](C)(C)C)CS1(=O)=O (stereo not given)
T/C [8]: 97 % of control | T/C [9]: 94 % of control

O=C1NC(c2cccc(Cl)c2)N2C(=O)NC(c3cccc(Cl)c3)N12 (stereo not given)
T/C (dose: 100.0 mg/kg/injection, schedule: Q01DX009 (ip), vehicle: gum acacia): 93 % of control | T/C (dose: 100.0 mg/kg/injection, schedule: Q04DX003 (ip), vehicle: gum acacia): 92 % of control | T/C (dose: 200.0 mg/kg/injection, schedule: Q04DX003 (ip), vehicle: gum acacia): 103 % of control | T/C (dose: 400.0 mg/kg/injection, schedule: Q01DX009 (ip), vehicle: gum acacia): 90 % of control | T/C (dose: 400.0 mg/kg/injection, schedule: Q04DX003 (ip), vehicle: gum acacia): 92 % of control

O=C(NCCCC(NC(=O)OCc1ccccc1)C(=O)NCCCNCCCCNCCCNC(=O)C(CCCNC(=O)OCc1ccccc1)NC(=O)OCc1ccccc1)OCc1ccccc1 (stereo not given)
T/C (dose: 10.0 mg/kg/injection, schedule: Q01DX Z (ip), vehicle: saline): 90 % of control

N#Cc1c(NN)n(C2OC(CO)C(O)C2O)c2ncncc12 (stereo not given)
T/C (dose: 100.0 mg/kg/injection, schedule: Q01DX005 (ip), vehicle: saline): 106 % of control | T/C (dose: 200.0 mg/kg/injection, schedule: Q01DX005 (ip), vehicle: saline): 106 % of control

Nc1cc(C(=O)O)ccc1Cl
T/C [10]: 105 % of control | T/C (dose: 200.0 mg/kg/injection, schedule: Q01DX001 (ip), vehicle: saline): 95 % of control | T/C (dose: 400.0 mg/kg/injection, schedule: Q01DX001 (ip), vehicle: saline): 95 % of control

COC(=O)c1c(C)cc(C)c(C(C)=O)c1O
T/C [4]: 96 % of control | T/C [1]: 102 % of control | T/C [2]: 104 % of control | T/C [3]: 107 % of control

O=C1OCCC1[P+](c1ccccc1)(c1ccccc1)c1ccccc1 (stereo not given)
T/C [10]: 88 % of control

CCOC(=O)CC1C(C)C(C)NC(C)C1C (stereo not given)
T/C [8]: 94 % of control | T/C [9]: 103 % of control

c1ccc(-c2nc(-c3ccccc3)nc(-c3ccccc3)n2)cc1
T/C (dose: 100.0 mg/kg/injection, schedule: Q04DX003 (ip), vehicle: Klucel (hydroxypropylcellulose) (HPC)): 98 % of control | T/C (dose: 200.0 mg/kg/injection, schedule: Q04DX003 (ip), vehicle: Klucel (hydroxypropylcellulose) (HPC)): 94 % of control | T/C (dose: 400.0 mg/kg/injection, schedule: Q04DX003 (ip), vehicle: Klucel (hydroxypropylcellulose) (HPC)): 94 % of control

CCC1OC(C)CC(C)(C)O1 (stereo not given)
T/C (dose: 50.0 mg/kg/injection, schedule: Q01DX009 (ip), vehicle: saline): 96 % of control | T/C (dose: 100.0 mg/kg/injection, schedule: Q01DX009 (ip), vehicle: saline): 101 % of control | T/C (dose: 100.0 mg/kg/injection, schedule: Q04DX002 (ip), vehicle: saline with Tween-80): 93 % of control | T/C (dose: 100.0 mg/kg/injection, schedule: Q04DX003 (ip), vehicle: acetone): 118 % of control | T/C (dose: 200.0 mg/kg/injection, schedule: Q01DX009 (ip), vehicle: saline): 96 % of control | T/C (dose: 200.0 mg/kg/injection, schedule: Q04DX002 (ip), vehicle: saline with Tween-80): 97 % of control | T/C (dose: 200.0 mg/kg/injection, schedule: Q04DX003 (ip), vehicle: acetone): 120 % of control | T/C (dose: 400.0 mg/kg/injection, schedule: Q04DX002 (ip), vehicle: saline with Tween-80): 101 % of control | T/C (dose: 400.0 mg/kg/injection, schedule: Q04DX003 (ip), vehicle: acetone): 101 % of control
